Results on 19 compounds are retold here after the supplement of paper PMC8967900.
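Note: ALL cell lines in 384-well plates, five doses spanning 10,000-fold, each plate scaled between vehicle and 100 µmol/L benzalkonium chloride controls, sDSS an adapted area-under-curve metric.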

The test system of the first experiment is COG-LL-394h. Nature of the experiment: selective drug sensitivity score (sDSS, relative to normal bone marrow) (sDSS (score)); higher = more potent and effective on the cell line relative to normal bone marrow cells. To be noted: 72 h.
For the compound `CNC(=O)c1ccc(C)c(-n2c(C)cc(OCc3ccc(F)cc3F)c(Br)c2=O)c1` (top concentration 1000 nM), the “selective drug sensitivity score” value amounted to 0.
The same measure, in the same setting: the figure for `CONC(=O)c1ccccc1Nc1cc(Nc2cc(C)nn2C(C)C)ncc1Cl` (top concentration 1000 nM) is -0.94; for `CCOc1ccn(-c2ccc(F)cc2)c(=O)c1C(=O)Nc1ccc(Oc2ccnc(N)c2Cl)c(F)c1` (top concentration 2500 nM) it is 0.8.
For `CC[C@@H]1[C@H](F)C(=O)N[C@@H]1COc1nccc2cc(C(N)=O)c(OC)cc12` (top concentration 10000 nM), the “selective drug sensitivity score” value is 0.38.
For `C[C@H]1C[C@@H](n2c(Nc3ccc(OC(F)(F)F)cc3)nc3cc(CCC(=O)O)ccc32)CC(C)(C)C1` (top concentration 10000 nM), the “selective drug sensitivity score” value was -0.14.
As for `O=C(NCc1ccncc1)C12CC3CC(C1)CC(c1ccc(Cl)cc1)(C3)C2` (top concentration 50000 nM), the “selective drug sensitivity score” value came to 2.88.
For `O=C(O)c1ccc(CN2CCC(CN[C@@H]3C[C@H]3c3ccccc3)CC2)cc1` (top concentration 100000 nM), the “selective drug sensitivity score” value was -0.62.
On to `COc1cc(N2CCN(C)CC2)ccc1Nc1nccc(-c2cn(C)c3cnccc23)n1` [AZ191] (top concentration 10000 nM), for which the “selective drug sensitivity score” value was -0.72.
As to `Cc1cc(Nc2nc(N[C@@H](C)c3ncc(F)cn3)ncc2Cl)[nH]n1` [AZD1480] (top concentration 1000 nM), the “selective drug sensitivity score” value was -4.18.
With `COc1cc(CCc2cc(NC(=O)c3ccc(N4CC(C)NC(C)C4)cc3)n[nH]2)cc(OC)c1` (configuration not stated) [AZD4547] (top concentration 1000 nM), the “selective drug sensitivity score” value was 0.16.
For `CN(C)C(=O)c1ccc(S(=O)(=O)c2ccc(NC(=O)[C@@](C)(O)C(F)(F)F)c(Cl)c2)cc1` [AZD7545] (top concentration 10000 nM), the “selective drug sensitivity score” value was 4.1.
Consider `COc1cc(C)c(/C=C/C(C)=C/C=C/C(C)=C/C(=O)O)c(C)c1C` [Acitretin] (top concentration 10000 nM), for which the “selective drug sensitivity score” value was -1.6.
Same read-out and setting: the figure for `CCC1(c2ccc(N)cc2)CCC(=O)NC1=O` (configuration not stated) [Aminoglutethimide] (top concentration 10000 nM) is 0; for `CNC(=O)c1ccc(N2C(=S)N(c3cnc(C#N)c(C(F)(F)F)c3)C(=O)C23CCC3)cc1F` [Apalutamide] (top concentration 10000 nM) it is 0.
For the compound `N#CC1(c2ccc(NC(=O)c3cccnc3NCc3ccncc3)cc2)CCCC1` [Apatinib] (top concentration 10000 nM), the “selective drug sensitivity score” value is 0.
Regarding `Cc1nc2cccc(N)c2c(=O)n1C1CCC(=O)NC1=O` (configuration not stated) [Avadomide (CC122)] (top concentration 10000 nM), the “selective drug sensitivity score” value came out at 0.
In the case of `Nc1nc(Nc2ccc3c(c2)CC[C@@H](N2CCCC2)CC3)nn1-c1cc2c(nn1)-c1ccccc1CCC2` [BGB324] (top concentration 10000 nM), the “selective drug sensitivity score” value turned out to be 2.82.
In the case of `CC1(C)C(C(=O)Nc2ccc(S(=O)(=O)c3ccc(NC(=O)C4C(C)(C)C4(C)C)cc3)cc2)C1(C)C` [BRD7116] (top concentration 10000 nM), the “selective drug sensitivity score” value came to 3.16.
Same read-out and setting: then `CCS(=O)(=O)N1CC(CC#N)(n2cc(-c3ncnc4[nH]ccc34)cn2)C1` [Baricitinib] (top concentration 2500 nM), with -1.94.

Another experiment has as its system DND-41. Described as above. To be noted: 72 h.
As for `CNC(=O)c1ccc(C)c(-n2c(C)cc(OCc3ccc(F)cc3F)c(Br)c2=O)c1` (top concentration 1000 nM), the “selective drug sensitivity score” value came out at 0.
Still for that read-out and setting: the figure for `CONC(=O)c1ccccc1Nc1cc(Nc2cc(C)nn2C(C)C)ncc1Cl` (top concentration 1000 nM) is 0.56.
The same measure, in the same setting: the figure for `CCOc1ccn(-c2ccc(F)cc2)c(=O)c1C(=O)Nc1ccc(Oc2ccnc(N)c2Cl)c(F)c1` (top concentration 2500 nM) is 0; for `CC[C@@H]1[C@H](F)C(=O)N[C@@H]1COc1nccc2cc(C(N)=O)c(OC)cc12` (top concentration 10000 nM) it is -1.32.
Take `C[C@H]1C[C@@H](n2c(Nc3ccc(OC(F)(F)F)cc3)nc3cc(CCC(=O)O)ccc32)CC(C)(C)C1` (top concentration 10000 nM): the “selective drug sensitivity score” value is -0.14.
Take `O=C(NCc1ccncc1)C12CC3CC(C1)CC(c1ccc(Cl)cc1)(C3)C2` (top concentration 50000 nM): the “selective drug sensitivity score” value stood at 4.08.
As for `O=C(O)c1ccc(CN2CCC(CN[C@@H]3C[C@H]3c3ccccc3)CC2)cc1` (top concentration 100000 nM), the “selective drug sensitivity score” value was -0.62.
Regarding `COc1cc(N2CCN(C)CC2)ccc1Nc1nccc(-c2cn(C)c3cnccc23)n1` [AZ191] (top concentration 10000 nM), the “selective drug sensitivity score” value is 0.08.
For `Cc1cc(Nc2nc(N[C@@H](C)c3ncc(F)cn3)ncc2Cl)[nH]n1` [AZD1480] (top concentration 1000 nM), the “selective drug sensitivity score” value came to 0.72.
As to `COc1cc(CCc2cc(NC(=O)c3ccc(N4CC(C)NC(C)C4)cc3)n[nH]2)cc(OC)c1` (configuration not stated) [AZD4547] (top concentration 1000 nM), the “selective drug sensitivity score” value came out at 1.66.
`CN(C)C(=O)c1ccc(S(=O)(=O)c2ccc(NC(=O)[C@@](C)(O)C(F)(F)F)c(Cl)c2)cc1` [AZD7545] (top concentration 10000 nM): the “selective drug sensitivity score” value was found to be 0.1.
For `COc1cc(C)c(/C=C/C(C)=C/C=C/C(C)=C/C(=O)O)c(C)c1C` [Acitretin] (top concentration 10000 nM), the “selective drug sensitivity score” value was -1.6.
Turning to `CCC1(c2ccc(N)cc2)CCC(=O)NC1=O` (configuration not stated) [Aminoglutethimide] (top concentration 10000 nM), the “selective drug sensitivity score” value is 0.
In the case of `CNC(=O)c1ccc(N2C(=S)N(c3cnc(C#N)c(C(F)(F)F)c3)C(=O)C23CCC3)cc1F` [Apalutamide] (top concentration 10000 nM), the “selective drug sensitivity score” value turned out to be 0.
Consider `N#CC1(c2ccc(NC(=O)c3cccnc3NCc3ccncc3)cc2)CCCC1` [Apatinib] (top concentration 10000 nM), for which the “selective drug sensitivity score” value stood at 1.
Regarding `Cc1nc2cccc(N)c2c(=O)n1C1CCC(=O)NC1=O` (configuration not stated) [Avadomide (CC122)] (top concentration 10000 nM), the “selective drug sensitivity score” value is 0.
Take `Nc1nc(Nc2ccc3c(c2)CC[C@@H](N2CCCC2)CC3)nn1-c1cc2c(nn1)-c1ccccc1CCC2` [BGB324] (top concentration 10000 nM): the “selective drug sensitivity score” value is 1.32.
As for `CC1(C)C(C(=O)Nc2ccc(S(=O)(=O)c3ccc(NC(=O)C4C(C)(C)C4(C)C)cc3)cc2)C1(C)C` [BRD7116] (top concentration 10000 nM), the “selective drug sensitivity score” value is -0.24.
Regarding `CCS(=O)(=O)N1CC(CC#N)(n2cc(-c3ncnc4[nH]ccc34)cn2)C1` [Baricitinib] (top concentration 2500 nM), the “selective drug sensitivity score” value was found to be 3.66.

The test system of a further experiment is HPB-ALL. Described as above. Particulars: 72 h.
Consider `CNC(=O)c1ccc(C)c(-n2c(C)cc(OCc3ccc(F)cc3F)c(Br)c2=O)c1` (top concentration 1000 nM), for which the “selective drug sensitivity score” value amounted to 4.6.
Regarding `CONC(=O)c1ccccc1Nc1cc(Nc2cc(C)nn2C(C)C)ncc1Cl` (top concentration 1000 nM), the “selective drug sensitivity score” value is -0.94.
Consider `CCOc1ccn(-c2ccc(F)cc2)c(=O)c1C(=O)Nc1ccc(Oc2ccnc(N)c2Cl)c(F)c1` (top concentration 2500 nM), for which the “selective drug sensitivity score” value came to 0.
Take `CC[C@@H]1[C@H](F)C(=O)N[C@@H]1COc1nccc2cc(C(N)=O)c(OC)cc12` (top concentration 10000 nM): the “selective drug sensitivity score” value was -1.32.
On to `C[C@H]1C[C@@H](n2c(Nc3ccc(OC(F)(F)F)cc3)nc3cc(CCC(=O)O)ccc32)CC(C)(C)C1` (top concentration 10000 nM), for which the “selective drug sensitivity score” value was 5.56.
On the same count and under the same terms, the figure for `O=C(NCc1ccncc1)C12CC3CC(C1)CC(c1ccc(Cl)cc1)(C3)C2` (top concentration 50000 nM) is 1.88.
Turning to `O=C(O)c1ccc(CN2CCC(CN[C@@H]3C[C@H]3c3ccccc3)CC2)cc1` (top concentration 100000 nM), the “selective drug sensitivity score” value is -0.62.
`COc1cc(N2CCN(C)CC2)ccc1Nc1nccc(-c2cn(C)c3cnccc23)n1` [AZ191] (top concentration 10000 nM): the “selective drug sensitivity score” value was -4.72.
As to `Cc1cc(Nc2nc(N[C@@H](C)c3ncc(F)cn3)ncc2Cl)[nH]n1` [AZD1480] (top concentration 1000 nM), the “selective drug sensitivity score” value was -3.48.
